Assay results: patent publication US20250361227A1, “INHIBITORS OF FLI1 AND ERG” (UNIVERSITY OF VIRGINIA PATENT FOUNDATION, priority 2022, published 2025)
Read-outs that look alike come from different tables or passages of the source.

Tests used:
ETV6 (TEL) = target: T1, ETV6 (TEL) (Homo sapiens, UniProt P41212); experiment: Fluorescence polarization DNA binding assay, auto-inhibited ETV6; settings: auto-inhibited construct; NA = no activity up to 2000 μM; >number = estimate from fit with lower bound
T1 sequence (P41212 1-452): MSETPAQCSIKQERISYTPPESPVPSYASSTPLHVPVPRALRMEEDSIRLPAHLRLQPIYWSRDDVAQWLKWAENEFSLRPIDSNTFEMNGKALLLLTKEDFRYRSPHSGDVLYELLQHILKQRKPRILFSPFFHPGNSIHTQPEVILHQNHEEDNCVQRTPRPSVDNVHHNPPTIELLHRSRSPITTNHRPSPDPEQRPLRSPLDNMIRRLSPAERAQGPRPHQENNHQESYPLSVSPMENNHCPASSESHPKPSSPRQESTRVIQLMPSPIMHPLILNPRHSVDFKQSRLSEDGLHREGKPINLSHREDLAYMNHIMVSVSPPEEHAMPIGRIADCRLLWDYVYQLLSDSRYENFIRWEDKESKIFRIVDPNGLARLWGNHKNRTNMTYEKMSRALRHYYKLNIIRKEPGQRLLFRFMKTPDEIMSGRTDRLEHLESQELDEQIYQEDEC
Description: (§1) The constructs of ERG which retain full auto-inhibition were previously delineated (17). Fluorescence polarization-based assays for DNA binding were then developed, which were used for screening. In addition to the auto-inhibited form of ERG, it was important to also have an assay using its Ets domain, i.e., the uninhibited form of the protein, to compare action of compounds. Compounds which are active against the auto-inhibited form of the protein but have little or no effect on the uninhibited form were sought, indicating their binding is mediated by the non-conserved auto-inhibitory modules rather than the highly conserved Ets domain. […] Fragment screening is an alternative approach that has gained a great deal of favor in the pharma industry recently that employs relatively small molecules (22). […] The auto-inhibited construct was screened first with a dose dependent screen of actives with ERGi using fluorescein- and Texas Red-DNA and then the positive hits were counter-screened with the ERG Ets domain, specifically a screen of actives with ERGu, the latter screen serving to remove compounds which bind to the conserved Ets domain or to DNA, which left 26 compounds which inhibit the auto-inhibited construct of ERG binding to DNA but not the uninhibited ERG (the Ets domain) binding to DNA. ERGi is the auto-inhibited construct of ERG (272-388) and ERGu is the uninhibited DNA binding domain construct of ERG (289-378). […] The IC50 of the validated hits was 0.6-7 mM. […] Importantly, chemical shift changes upon compound addition are observed in the ^15N-^1H HSQC NMR spectra of ERG for amino acids located in the auto-inhibitory modules of ERG, indicating they do interact with these regions of the protein. It is critical to also develop assays for other ETS family members to assess the specificity of action of the compounds identified in the screen, so auto-inhibited constructs were expressed and assays were developed for five other ETS family members and assays for additional members of the family were also developed.
(§2) Using a standard medicinal chemistry approach, further optimization of the fragment hits were pursued. The specificity of parent fragments and their optimized derivatives with 5 additional Ets proteins which are representatives of 5 additional sub-families, were evaluated, as shown in Table 2. […] NA in Table 2 represents no activity up to the 2000 μM maximum concentration. >number in Table 2 represents some activity at highest concentrations so data fit with a lower bound to obtain an estimate of IC50.

ELF3 = target: T2, ELF3 (Homo sapiens, UniProt P78545); experiment: Fluorescence polarization DNA binding assay, auto-inhibited ELF3; settings: auto-inhibited construct; NA = no activity up to 2000 μM; >number = estimate from fit with lower bound
T2 sequence (P78545 1-371): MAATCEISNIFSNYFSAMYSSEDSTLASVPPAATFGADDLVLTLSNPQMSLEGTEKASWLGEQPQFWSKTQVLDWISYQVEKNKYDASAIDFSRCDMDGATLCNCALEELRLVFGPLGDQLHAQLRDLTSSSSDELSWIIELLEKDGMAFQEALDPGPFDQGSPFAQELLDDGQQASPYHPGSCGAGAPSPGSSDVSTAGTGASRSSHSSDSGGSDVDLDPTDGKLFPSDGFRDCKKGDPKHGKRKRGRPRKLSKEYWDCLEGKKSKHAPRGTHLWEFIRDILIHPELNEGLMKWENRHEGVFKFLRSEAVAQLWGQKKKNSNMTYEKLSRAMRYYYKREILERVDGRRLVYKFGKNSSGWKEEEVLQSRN
Description: as §1, §2

[1] = target: T3, ERG isolated Ets domain (ERGu, 289-378) (Homo sapiens, UniProt P11308); experiment: Fluorescence polarization DNA binding assay, uninhibited ERG; settings: FP DNA binding, NA = no activity up to 2000 μM, >number = estimate from fit with lower bound
T3 construct: made in house
T3 sequence (P11308 289-378 isoform P11308-1): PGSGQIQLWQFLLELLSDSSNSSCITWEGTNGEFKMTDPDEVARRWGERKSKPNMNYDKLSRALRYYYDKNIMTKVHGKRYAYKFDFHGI
Description: as §1, §2

ELK1 = target: T4, ELK1 (Homo sapiens, UniProt P19419); experiment: Fluorescence polarization DNA binding assay, auto-inhibited ELK1; settings: auto-inhibited construct; NA = no activity up to 2000 μM; >number = estimate from fit with lower bound
T4 sequence (P19419 1-428): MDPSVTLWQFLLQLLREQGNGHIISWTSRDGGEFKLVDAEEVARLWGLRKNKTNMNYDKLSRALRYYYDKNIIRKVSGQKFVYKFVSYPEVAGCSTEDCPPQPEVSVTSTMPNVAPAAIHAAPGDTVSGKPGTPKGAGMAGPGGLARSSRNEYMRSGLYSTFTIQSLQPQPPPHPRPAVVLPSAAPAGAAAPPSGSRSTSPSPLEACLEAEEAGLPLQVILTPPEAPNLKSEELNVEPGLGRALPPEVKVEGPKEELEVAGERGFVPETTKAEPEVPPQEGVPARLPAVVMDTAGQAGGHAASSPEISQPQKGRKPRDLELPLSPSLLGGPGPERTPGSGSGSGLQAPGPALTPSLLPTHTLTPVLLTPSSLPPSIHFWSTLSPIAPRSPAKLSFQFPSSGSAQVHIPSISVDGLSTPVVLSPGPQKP
Description: as §1, §2

Ets1 = target: T5, Ets1 (Homo sapiens, UniProt P14921); experiment: Fluorescence polarization DNA binding assay, auto-inhibited Ets-1; settings: auto-inhibited construct; NA = no activity up to 2000 μM; >number = estimate from fit with lower bound
T5 sequence (P14921 1-441): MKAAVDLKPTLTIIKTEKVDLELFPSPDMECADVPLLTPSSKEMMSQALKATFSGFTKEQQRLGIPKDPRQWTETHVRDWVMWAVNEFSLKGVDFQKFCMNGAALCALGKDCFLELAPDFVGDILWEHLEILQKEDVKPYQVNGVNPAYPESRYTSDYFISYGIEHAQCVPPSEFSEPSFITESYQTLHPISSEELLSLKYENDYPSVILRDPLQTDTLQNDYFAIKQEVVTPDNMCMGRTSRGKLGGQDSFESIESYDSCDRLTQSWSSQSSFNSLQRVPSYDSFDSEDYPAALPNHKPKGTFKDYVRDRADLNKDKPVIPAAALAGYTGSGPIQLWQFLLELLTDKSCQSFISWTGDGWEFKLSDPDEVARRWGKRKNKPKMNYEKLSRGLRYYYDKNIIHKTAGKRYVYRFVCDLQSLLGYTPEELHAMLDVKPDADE
Description: as §1, §2

Spi1 (PU.1) = Spi1 (PU.1) (Homo sapiens, UniProt P17947); experiment: Fluorescence polarization DNA binding assay, auto-inhibited PU.1; settings: auto-inhibited construct; NA = no activity up to 2000 μM; >number = estimate from fit with lower bound
Description: as §1, §2

[2] = target: T6, ERG auto-inhibited construct (ERGi, 272-388) (Homo sapiens, UniProt P11308); experiment: ERGi-DNA fluorescence polarization assay; assay type: binding
T6 construct: made in house
T6 sequence (P11308 272-388 isoform P11308-1): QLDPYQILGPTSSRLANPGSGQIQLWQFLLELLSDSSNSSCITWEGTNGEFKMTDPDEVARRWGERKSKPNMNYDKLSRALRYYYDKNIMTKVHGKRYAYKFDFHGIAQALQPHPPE
Description: as §1, §2

DNA = settings: ITC, ERG construct binding to DNA; ±SE in cell beside; cited from earlier work
[3] = FP DNA binding, maximum concentration 2000 μM, read-out: IC50 ERG Auto-inhibited construct
[4] = optimized fragment analogs, values in text, read-out: IC50

Q: What does the source list for `Cc1ccc(OCC(=O)Nc2cccc(O)c2)cc1` [Compound 6H6]?
A: IC50 (ETV6 (TEL)): > 2000 µM; IC50 (ELF3): > 2000 µM; IC50 [1]: > 2000 µM; IC50 (ELK1): > 4500 µM; IC50 (Ets1): > 4000 µM; IC50 (Spi1 (PU.1)): > 2000 µM; IC50 [2, 3]: 588 µM

Q: Which IC50 (ETV6 (TEL)) does the source give for `Nc1ccc(Cl)c(-c2nc3ccccc3o2)c1` [Compound 9B5] here?
A: The IC50 was > 2500 µM.

Q: What about the IC50 (ELF3) of the same molecule?
A: Its IC50 is 1830 µM.

Q: What about the IC50 [1] of the same molecule?
A: Its IC50 is > 2000 µM.

Q: What about the IC50 (ELK1) of the same molecule?
A: The IC50 was > 2100 µM.

Q: And the IC50 (Ets1)?
A: Its IC50 is > 2000 µM.

Q: And the IC50 (Spi1 (PU.1))?
A: Its IC50 is > 4100 µM.

Q: What about the IC50 [2, 3] of the same molecule?
A: Its IC50 is 965 µM.

Q: For `COc1cccc2cc(C(C)=O)oc12` [Compound 9F1], which IC50 (ETV6 (TEL)) is on record?
A: Its IC50 is > 2000 µM.

Q: What about the IC50 (ELF3) of the same molecule?
A: The IC50 was > 2000 µM.

Q: What about the IC50 [1] of the same molecule?
A: Its IC50 is > 2000 µM.

Q: What about the IC50 (ELK1) of the same molecule?
A: Its IC50 is > 2000 µM.

Q: And the IC50 (Ets1)?
A: Its IC50 is > 2000 µM.

Q: And the IC50 (Spi1 (PU.1))?
A: The IC50 was > 2000 µM.

Q: Which IC50 (ETV6 (TEL)) does the source give for `COc1ccc(-c2c(C(C)=O)oc3c(OC)cccc23)cc1` [KK-16-69] here?
A: Its IC50 is > 7800 µM.

Q: What about the IC50 (ELF3) of the same molecule?
A: Its IC50 is > 2000 µM.

Q: And the IC50 [1]?
A: Its IC50 is > 2000 µM.

Q: And the IC50 (ELK1)?
A: Its IC50 is > 2000 µM.

Q: What about the IC50 (Ets1) of the same molecule?
A: The IC50 was > 2000 µM.

Q: And the IC50 (Spi1 (PU.1))?
A: Its IC50 is > 5700 µM.

Q: What about the IC50 [2, 4] of the same molecule?
A: The IC50 was 99 µM.

Q: With `Cc1ccc(-c2nc3ccccc3o2)cc1C` [KK-19-109] as the molecule, how does the IC50 [2, 4] read?
A: Its IC50 is 63 µM.

Q: Which IC50 (ETV6 (TEL)) does the source give for `COc1cc(OCC(=O)Nc2cccc(O)c2)ccc1C` [KK-22-93] here?
A: Its IC50 is > 2000 µM.

Q: And the IC50 (ELF3)?
A: The IC50 was > 2000 µM.

Q: What about the IC50 [1] of the same molecule?
A: Its IC50 is > 3000 µM.

Q: And the IC50 (ELK1)?
A: Its IC50 is > 4750 µM.

Q: And the IC50 (Ets1)?
A: Its IC50 is > 3600 µM.

Q: What about the IC50 (Spi1 (PU.1)) of the same molecule?
A: The IC50 was > 2000 µM.

Q: And the IC50 [2, 4]?
A: Its IC50 is 88 µM.

B1: 289-412: ERG truncation construct, residues 289-412 (protein, UniProt P11308 289-412, looked up, fragment)
chain: QLDPYQILGPTSSRLANPGSGQIQLWQFLLELLSDSSNSSCITWEGTNGEFKMTDPDEVARRWGERKSKPNMNYDKLSRALRYYYDKNIMTKVHGKRYAYKFDFHGIAQALQPHPPESSLYKYP
Q: With B1 as the molecule, how does the Kd (DNA) read?
A: Its Kd is 0.051 µM.
